Experimental data as given in US20100267561A1, “HERBICIDAL PYRIDAZINONE DERIVATIVES” (priority 2007, published 2010).
Read-outs that look alike come from different tables or passages of the source.

Columns and labels:
Assay type in all cases: in vivo
corn (Zea mays) = test: Test A pre-/postemergence plant response; conditions: Zea mays, 240 h; for Corn plant response rating (crop injury, 0 = no effect, 100 = complete kill) at 125 g/ha: 125 g ai/ha; for Corn plant response rating (crop injury, 0 = no effect, 100 = complete kill) at 500 g/ha: 500 g ai/ha
Outline: (§1)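 Ratings are visual, 0–100, where 100 means complete control and 0 no effect, taken roughly 10 days after treatment by comparison with untreated controls. Formulation: non-phytotoxic solvent mixture with surfactant.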

[1] = system: pigweed (Amaranthus retroflexus); test: Test A pre-/postemergence plant response; conditions: Amaranthus retroflexus, 240 h, read-out: Plant response rating, Pigweed; for pest or weed control at 125 g/ha: 125 g ai/ha; for pest or weed control at 500 g/ha: 500 g ai/ha
Outline: as §1

[2] = system: barnyardgrass (Echinochloa crus-galli); test: Test A pre-/postemergence plant response; conditions: Echinochloa crus-galli, 240 h, read-out: Plant response rating, Barnyardgrass; for pest or weed control at 125 g/ha: 125 g ai/ha; for pest or weed control at 500 g/ha: 500 g ai/ha
Outline: as §1

[3] = system: large crabgrass (Digitaria sanguinalis); test: Test A pre-/postemergence plant response; conditions: Digitaria sanguinalis, 240 h, read-out: Plant response rating, Crabgrass, Large; for pest or weed control at 125 g/ha: 125 g ai/ha; for pest or weed control at 500 g/ha: 500 g ai/ha
Outline: as §1

[4] = system: wheat (Triticum aestivum); test: Test A pre-/postemergence plant response; conditions: Triticum aestivum, 240 h, read-out: Plant response rating, Wheat; for plant injury at 125 g/ha: 125 g ai/ha; for plant injury at 500 g/ha: 500 g ai/ha
Outline: as §1

[5] = system: giant foxtail (Setaria faberi); test: Test A pre-/postemergence plant response; conditions: Setaria faberi, 240 h, read-out: Plant response rating, Foxtail, Giant; for pest or weed control at 125 g/ha: 125 g ai/ha; for pest or weed control at 500 g/ha: 500 g ai/ha
Outline: as §1

[6] = system: morningglory (Ipomoea coccinea); test: Test A pre-/postemergence plant response
Outline: as §1

[7] = system: velvetleaf (Abutilon theophrasti); test: Test A pre-/postemergence plant response
Outline: as §1

[8] = system: barnyardgrass (Echinochloa crus-galli); test: Test B flooded paddy test plant response; conditions: Echinochloa crus-galli, read-out: Plant response rating, Barnyardgrass
Outline: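 Compounds were added directly to paddy water over 2-leaf-stage plants in pots flooded 3 cm above soil, water depth maintained. Visual injury scored against controls after 13 to 15 days in greenhouse, 0 (none) to 100 (complete control); dash indicates no result.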

[9] = system: eastern black (E.B.) nightshade (Solanum ptycanthum); test: Test B pre-/postemergence plant response; conditions: Solanum, pre-emergence, Preemergence, read-out: Plant response rating, Nightshade, E. B.
Outline: (§2)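 Preemergence and postemergence (plants 2-18 cm, 1- to 4-leaf stage) applications used test chemicals in a non-phytotoxic solvent with surfactant. Plants were held in a greenhouse 13 to 15 days, then rated visually against controls on a 0-100 scale (0 no effect, 100 complete control).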

[10] = system: green foxtail (Setaria viridis); test: Test B pre-/postemergence plant response; conditions: Setaria viridis, read-out: Plant response rating, Foxtail, Green; for pest or weed control at 16 g/ha: 16 g ai/ha; for pest or weed control at 31 g/ha: 31 g ai/ha, 100 complete control; for pest or weed control at 62 g/ha: 62 g ai/ha; for pest or weed control at 125 g/ha: 125 g ai/ha
Outline: as §2

[11] = post-emergence, Postemergence, 0 to 100 scale, 0 no effect, 100 complete control
[12] = pre-emergence, Preemergence, 0 to 100 scale (0 no effect, 100 complete control)
[13] = Postemergence, 125 g ai/ha, 0 to 100 scale, 0 no effect, 100 complete control
[14] = Postemergence, 500 g ai/ha, 0 to 100 scale, 0 no effect, 100 complete control
[15] = Preemergence, 125 g ai/ha, 0 to 100 scale (0 no effect, 100 complete control)
[16] = Preemergence, 500 g ai/ha, 0 to 100 scale (0 no effect, 100 complete control)
[17] = post-emergence, Postemergence, scale 0 to 100
[18] = pre-emergence, Preemergence, scale 0 to 100

Molecule `CCc1cc(-c2ccc(C(F)(F)F)cc2)nn1-c1c(O)cnn(C)c1=O` [Compound 11, 4-[5-ethyl-3-[4-(trifluoromethyl)phenyl]-1H-pyrazol-1-yl]-5-hydroxy-2-methyl-3(2H)-pyridazinone] has a Corn plant response rating (crop injury, 0 = no effect, 100 = complete kill) at 125 g/ha (corn (Zea mays); [11]) of 90%, a Corn plant response rating (crop injury, 0 = no effect, 100 = complete kill) at 500 g/ha (corn (Zea mays); [11]) of 90% and a Corn plant response rating (crop injury, 0 = no effect, 100 = complete kill) at 125 g/ha (corn (Zea mays); [12]) of 90%. The Corn plant response rating (crop injury, 0 = no effect, 100 = complete kill) at 500 g/ha (corn (Zea mays); [12]) was 100%, the pest or weed control at 125 g/ha [1, 11] was 0% and the pest or weed control at 500 g/ha [1, 11] was 0%. For the same molecule, the pest or weed control at 125 g/ha [1, 12] was 0%, the pest or weed control at 500 g/ha [1, 12] was 30% and the pest or weed control at 125 g/ha [2, 11] was 100%. The pest or weed control at 500 g/ha [2, 11] was 100%, the pest or weed control at 125 g/ha [2, 12] was 100% and the pest or weed control at 500 g/ha [2, 12] was 100%. For the same molecule, the pest or weed control at 125 g/ha [3, 11] was 90%, the pest or weed control at 500 g/ha [3, 11] was 100% and the pest or weed control at 125 g/ha [3, 12] was 100%. For the same molecule, the pest or weed control at 500 g/ha [3, 12] was 100%, the plant injury at 125 g/ha [4, 11] was 80% and the plant injury at 500 g/ha [4, 11] was 100%. The plant injury at 125 g/ha [4, 12] was 100%, the plant injury at 500 g/ha [4, 12] was 100% and the pest or weed control at 125 g/ha [5, 11] was 90%. For the same molecule, the pest or weed control at 500 g/ha [5, 11] was 100%, the pest or weed control at 125 g/ha [5, 12] was 100% and the pest or weed control at 500 g/ha [5, 12] was 100%. The “Plant response rating, Morningglory” value [6, 13] was 0, the “Plant response rating, Morningglory” value [6, 14] was 0 and the “Plant response rating, Morningglory” value [6, 15] was 0. For the same molecule, the “Plant response rating, Morningglory” value [6, 16] was 30, the “Plant response rating, Velvetleaf” value [7, 13] was 0 and the “Plant response rating, Velvetleaf” value [7, 14] was 0. For the same molecule, the “Plant response rating, Velvetleaf” value [7, 15] was 0, the “Plant response rating, Velvetleaf” value [7, 16] was 0 and the pest or weed control at 62 g/ha ([8]; Flood (flooded paddy test), 62 g ai/ha, scale 0 to 100, 0 no effect, 100 complete control) was 50%. It also gave a pest or weed control at 125 g/ha ([8]; Flood (flooded paddy test), 125 g ai/ha, scale 0 to 100, 0 no effect, 100 complete control) of 65%, a pest or weed control at 250 g/ha ([8]; Flood (flooded paddy test), 250 g ai/ha, scale 0 to 100, 0 no effect, 100 complete control) of 75% and a pest or weed control at 31 g/ha ([8]; Flood, 31 g ai/ha, scale 0 to 100) of 40%. For the same molecule, the pest or weed control at 31 g/ha ([9]; 31 g ai/ha, 0 to 100 scale, 0 no effect, 100 complete control) was 0%, the pest or weed control at 62 g/ha ([9]; 62 g ai/ha, scale 0 to 100) was 0% and the pest or weed control at 125 g/ha ([9]; 125 g ai/ha, scale 0 to 100) was 0%. For the same molecule, the pest or weed control at 16 g/ha [10, 17] was 85%, the pest or weed control at 31 g/ha ([10]; post-emergence, Postemergence, scale 0 to 100, 0 no effect) was 100% and the pest or weed control at 62 g/ha [10, 17] was 100%. The pest or weed control at 125 g/ha [10, 17] was 100%, the pest or weed control at 16 g/ha ([10]; pre-emergence, Preemergence, scale 0 to 100 (0 no effect, 100 complete control)) was 100% and the pest or weed control at 31 g/ha ([10]; pre-emergence, Preemergence, 0 to 100 scale, 0 no effect) was 100%. For the same molecule, the pest or weed control at 62 g/ha [10, 18] was 100% and the pest or weed control at 125 g/ha [10, 18] was 100%.
